Assay results taken from PubChem BioAssay (NCI).
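1) Cells in 96-well plates. 2) Compound, 48 h, 5 concentrations. 3) Linear interpolation between surrounding doses. 4) Unreached endpoint = highest concentration. Abbreviation: GI50, concentration required for 50% inhibition of growth. TGI: total growth inhibition.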

How the values were obtained:
Assay in all cases: NCI-60 cell line screen, 48 h
ACHN renal = system: ACHN renal
A549 NSCLC = system: A549 NSCLC
HT29 colon = system: HT29 colon
UO-31 renal = system: UO-31 renal
HCT-116 colon = system: HCT-116 colon
HOP-18 NSCLC = system: HOP-18 NSCLC
SF-539 CNS = system: SF-539 CNS
TK-10 renal = system: TK-10 renal
IGROV1 ovarian = system: IGROV1 ovarian
SF-268 CNS = system: SF-268 CNS
HOP-92 NSCLC = system: HOP-92 NSCLC
UACC-257 melanoma = system: UACC-257 melanoma
NCI-H522 lung = system: NCI-H522 lung
DMS 114 small cell lung = system: DMS 114 small cell lung
OVCAR-4 ovarian = system: OVCAR-4 ovarian
U251 CNS = system: U251 CNS
LOX IMVI melanoma = system: LOX IMVI melanoma
MOLT-4 leukemia = system: MOLT-4 leukemia
SK-MEL-28 melanoma = system: SK-MEL-28 melanoma
SK-MEL-2 melanoma = system: SK-MEL-2 melanoma
UACC-62 melanoma = system: UACC-62 melanoma
COLO 205 colon = system: COLO 205 colon
HOP-62 NSCLC = system: HOP-62 NSCLC
SNB-75 CNS = system: SNB-75 CNS
A498 renal = system: A498 renal
HCT-15 colon = system: HCT-15 colon
OVCAR-8 ovarian = system: OVCAR-8 ovarian
CCRF-CEM leukemia = system: CCRF-CEM leukemia
SK-OV-3 ovarian = system: SK-OV-3 ovarian
OVCAR-5 ovarian = system: OVCAR-5 ovarian
EKVX NSCLC = system: EKVX NSCLC
SNB-78 CNS = system: SNB-78 CNS
RXF-631 renal = system: RXF-631 renal
LXFL 529 NSCLC = system: LXFL 529 NSCLC
OVCAR-3 ovarian = system: OVCAR-3 ovarian
786-0 renal = system: 786-0 renal
M14 melanoma = system: M14 melanoma
HL-60(TB) leukemia = system: HL-60(TB) leukemia
SF-295 CNS = system: SF-295 CNS
KM12 colon = system: KM12 colon
MALME-3M melanoma = system: MALME-3M melanoma
SK-MEL-5 melanoma = system: SK-MEL-5 melanoma
RPMI-8226 leukemia = system: RPMI-8226 leukemia
NCI-H23 lung = system: NCI-H23 lung
KM20L2 colon = system: KM20L2 colon
HCC-2998 colon = system: HCC-2998 colon
NCI-H460 lung = system: NCI-H460 lung
SNB-19 CNS = system: SNB-19 CNS
RXF 393 renal = system: RXF 393 renal
DLD-1 colon = system: DLD-1 colon
NCI-H226 lung = system: NCI-H226 lung
SN12C renal = system: SN12C renal
K-562 leukemia = system: K-562 leukemia
SW-620 colon = system: SW-620 colon
BT-549 breast = system: BT-549 breast
DU-145 prostate = system: DU-145 prostate
M19-MEL melanoma = system: M19-MEL melanoma
PC-3 prostate = system: PC-3 prostate
MDA-MB-435 = system: MDA-MB-435
MDA-MB-231 breast = system: MDA-MB-231 breast
SR leukemia = system: SR leukemia
HS 578T breast = system: HS 578T breast
CAKI-1 renal = system: CAKI-1 renal
T-47D breast = system: T-47D breast
MCF7 breast = system: MCF7 breast
DMS 273 small cell lung = system: DMS 273 small cell lung

## CC1=C(C(=O)Nc2cccc(Cl)c2)C(c2ccc([N+](=O)[O-])cc2)C(C(=O)Nc2cccc(Cl)c2)=C(C)N1
ACHN renal
  TGI: 97.9 µM
A549 NSCLC
  TGI: > 100 µM
HT29 colon
  TGI: 35 µM
UO-31 renal
  TGI: 65.4 µM
HCT-116 colon
  TGI: 71.9 µM
HOP-18 NSCLC
  TGI: 56.7 µM
SF-539 CNS
  TGI: > 100 µM
TK-10 renal
  TGI: > 100 µM
IGROV1 ovarian
  TGI: > 100 µM
SF-268 CNS
  TGI: > 100 µM
HOP-92 NSCLC
  TGI: 31.1 µM
UACC-257 melanoma
  TGI: 38.2 µM
NCI-H522 lung
  TGI: 89.9 µM
DMS 114 small cell lung
  TGI: > 100 µM
OVCAR-4 ovarian
  TGI: > 100 µM
U251 CNS
  TGI: 56 µM
LOX IMVI melanoma
  TGI: 28.8 µM
MOLT-4 leukemia
  TGI: 56.2 µM
SK-MEL-28 melanoma
  TGI: > 100 µM
SK-MEL-2 melanoma
  TGI: 32.9 µM
UACC-62 melanoma
  TGI: 37.2 µM
COLO 205 colon
  TGI: > 100 µM
HOP-62 NSCLC
  TGI: > 100 µM
SNB-75 CNS
  TGI: 91.1 µM
A498 renal
  TGI: > 100 µM
HCT-15 colon
  TGI: 79.8 µM
OVCAR-8 ovarian
  TGI: > 100 µM
CCRF-CEM leukemia
  TGI: > 100 µM
SK-OV-3 ovarian
  TGI: 48.9 µM
OVCAR-5 ovarian
  TGI: > 100 µM
EKVX NSCLC
  TGI: > 100 µM
SNB-78 CNS
  TGI: > 100 µM
RXF-631 renal
  TGI: 57.6 µM
LXFL 529 NSCLC
  TGI: > 100 µM
OVCAR-3 ovarian
  TGI: 85.3 µM
786-0 renal
  TGI: 69.6 µM
M14 melanoma
  TGI: 42.1 µM
HL-60(TB) leukemia
  TGI: 47.4 µM
SF-295 CNS
  TGI: 58.4 µM
KM12 colon
  TGI: 52.9 µM
MALME-3M melanoma
  TGI: 59.5 µM
SK-MEL-5 melanoma
  TGI: 33.8 µM
RPMI-8226 leukemia
  TGI: 83.4 µM
NCI-H23 lung
  TGI: 62.3 µM
KM20L2 colon
  TGI: 54.4 µM
HCC-2998 colon
  TGI: 48.2 µM
NCI-H460 lung
  TGI: 50.4 µM
SNB-19 CNS
  TGI: > 100 µM
RXF 393 renal
  TGI: 58.7 µM
DLD-1 colon
  TGI: > 100 µM
NCI-H226 lung
  TGI: 84.5 µM
SN12C renal
  TGI: 75.8 µM
K-562 leukemia
  TGI: > 100 µM

## C=C(C)C(=O)OC1CC2=CC(CC3(C)OC3C3OC(=O)C(=C)C13)OC2=O (stereo not given)
ACHN renal
  TGI: 16.7 µM
A549 NSCLC
  TGI: 36.5 µM
HT29 colon
  TGI: 17.3 µM
UO-31 renal
  TGI: 26.2 µM
SW-620 colon
  TGI: 5.03 µM
HCT-116 colon
  TGI: 17.1 µM
HOP-18 NSCLC
  TGI: 34.1 µM
SF-539 CNS
  TGI: 18.3 µM
TK-10 renal
  TGI: 15.3 µM
IGROV1 ovarian
  TGI: 38.8 µM
SF-268 CNS
  TGI: 47.3 µM
BT-549 breast
  TGI: 25 µM
HOP-92 NSCLC
  TGI: 7.35 µM
DU-145 prostate
  TGI: 51.8 µM
UACC-257 melanoma
  TGI: 13.7 µM
NCI-H522 lung
  TGI: 4.18 µM
DMS 114 small cell lung
  TGI: 30.3 µM
OVCAR-4 ovarian
  TGI: 29.9 µM
U251 CNS
  TGI: 32.5 µM
LOX IMVI melanoma
  TGI: 8.99 µM
MOLT-4 leukemia
  TGI: 15 µM
SK-MEL-28 melanoma
  TGI: 26.2 µM
SK-MEL-2 melanoma
  TGI: 26.4 µM
UACC-62 melanoma
  TGI: 22 µM
COLO 205 colon
  TGI: 7.08 µM
HOP-62 NSCLC
  TGI: 41.9 µM
SNB-75 CNS
  TGI: 28.5 µM
A498 renal
  TGI: 30.2 µM
HCT-15 colon
  TGI: 20.2 µM
OVCAR-8 ovarian
  TGI: 18.1 µM
CCRF-CEM leukemia
  GI50: 1.63 µM
  TGI: 5.59 µM
SK-OV-3 ovarian
  TGI: 36.8 µM
OVCAR-5 ovarian
  TGI: 34.6 µM
EKVX NSCLC
  TGI: 30.9 µM
SNB-78 CNS
  TGI: 33.3 µM
RXF-631 renal
  TGI: 35.8 µM
LXFL 529 NSCLC
  TGI: 5.94 µM
OVCAR-3 ovarian
  TGI: 25.4 µM
M19-MEL melanoma
  TGI: 19 µM
PC-3 prostate
  TGI: 28.1 µM
786-0 renal
  TGI: 20.5 µM
MDA-MB-435
  TGI: 30.2 µM
M14 melanoma
  TGI: 15.4 µM
HL-60(TB) leukemia
  GI50: 0.749 µM
SF-295 CNS
  TGI: 32.7 µM
MDA-MB-231 breast
  TGI: 37.1 µM
KM12 colon
  TGI: 32.1 µM
MALME-3M melanoma
  TGI: 13.3 µM
SR leukemia
  TGI: 15.7 µM
SK-MEL-5 melanoma
  TGI: 31 µM
RPMI-8226 leukemia
  GI50: 0.865 µM
  TGI: 2.75 µM
NCI-H23 lung
  TGI: 30.9 µM
KM20L2 colon
  TGI: 30.5 µM
HCC-2998 colon
  TGI: 34.8 µM
NCI-H460 lung
  TGI: 35.1 µM
HS 578T breast
  TGI: 44.3 µM
SNB-19 CNS
  TGI: 33.9 µM
RXF 393 renal
  TGI: 9.37 µM
DLD-1 colon
  TGI: 5.17 µM
NCI-H226 lung
  TGI: 39 µM
CAKI-1 renal
  TGI: 12.7 µM
SN12C renal
  TGI: 26.8 µM
T-47D breast
  TGI: 22.6 µM
MCF7 breast
  TGI: 14.7 µM
K-562 leukemia
  GI50: 2.62 µM
  TGI: 9.8 µM
DMS 273 small cell lung
  TGI: 28.3 µM

## O=c1c(Sc2c(O)c3ccccc3c3ccccc3c2=O)c(O)c2ccccc2c2ccccc12
ACHN renal
  TGI: 78.5 µM
A549 NSCLC
  TGI: > 100 µM
HT29 colon
  TGI: > 100 µM
UO-31 renal
  TGI: > 100 µM
SW-620 colon
  TGI: > 100 µM
HOP-18 NSCLC
  TGI: > 100 µM
SF-539 CNS
  TGI: > 100 µM
TK-10 renal
  TGI: > 100 µM
IGROV1 ovarian
  TGI: > 100 µM
SF-268 CNS
  TGI: 99 µM
HOP-92 NSCLC
  TGI: > 100 µM
UACC-257 melanoma
  TGI: > 100 µM
NCI-H522 lung
  TGI: 47.8 µM
DMS 114 small cell lung
  TGI: 92.3 µM
OVCAR-4 ovarian
  TGI: > 100 µM
U251 CNS
  TGI: 84 µM
LOX IMVI melanoma
  TGI: 66.5 µM
MOLT-4 leukemia
  TGI: 73.8 µM
SK-MEL-28 melanoma
  TGI: > 100 µM
SK-MEL-2 melanoma
  TGI: 68.5 µM
UACC-62 melanoma
  TGI: > 100 µM
COLO 205 colon
  TGI: > 100 µM
HOP-62 NSCLC
  TGI: 86.4 µM
SNB-75 CNS
  TGI: > 100 µM
HCT-15 colon
  TGI: > 100 µM
OVCAR-8 ovarian
  TGI: > 100 µM
CCRF-CEM leukemia
  TGI: 56.6 µM
SK-OV-3 ovarian
  TGI: > 100 µM
OVCAR-5 ovarian
  TGI: > 100 µM
EKVX NSCLC
  TGI: > 100 µM
RXF-631 renal
  TGI: > 100 µM
LXFL 529 NSCLC
  TGI: > 100 µM
OVCAR-3 ovarian
  TGI: > 100 µM
M19-MEL melanoma
  TGI: > 100 µM
786-0 renal
  TGI: > 100 µM
M14 melanoma
  TGI: > 100 µM
HL-60(TB) leukemia
  TGI: 41.8 µM
SF-295 CNS
  TGI: > 100 µM
KM12 colon
  TGI: > 100 µM
MALME-3M melanoma
  TGI: > 100 µM
SK-MEL-5 melanoma
  TGI: > 100 µM
RPMI-8226 leukemia
  TGI: > 100 µM
NCI-H23 lung
  TGI: 94.7 µM
KM20L2 colon
  TGI: > 100 µM
HCC-2998 colon
  TGI: > 100 µM
NCI-H460 lung
  TGI: > 100 µM
SNB-19 CNS
  TGI: > 100 µM
RXF 393 renal
  TGI: > 100 µM
DLD-1 colon
  TGI: > 100 µM
CAKI-1 renal
  TGI: > 100 µM
SN12C renal
  TGI: > 100 µM
K-562 leukemia
  TGI: > 100 µM
DMS 273 small cell lung
  TGI: > 100 µM
